Data as given in US20100004277A1, “COMPOUNDS AND METHODS FOR MODULATING PROTEIN TRAFFICKING” (FoldRx Pharmaceuticals, Inc., priority 2006, published 2010).
Residues, ends and D or L forms follow the SMILES beside them. *: point of attachment. Cbz = O=C(OCc1ccccc1)*

Columns and labels:
[1] = test system: sar1^ts mutant yeast strain; test: sar1^ts mutant growth rescue assay (OD600); assay type: cell-based; conditions: 35° C., 72 hours, 0.05 to 50 μM
Experimental: The sar1st mutant yeast strain (ATCC, Manassas, Va.) carries a temperature sensitive mutant allele of the SAR1 gene, which permits the strain to grow at 25° C., but undergo growth arrest at 35° C. or higher. Inactivation of the mutant Sar1^ts protein at 35° C. prevents the formation of transport vesicles at the ER, causing a block in ER to golgi trafficking (Saito et al. (1998) J. Biochem. (Tokyo) 124(4):816-823).
To identify compounds that rescue the sar1^ts mutant phenotype, the mutant strain was first grown at 25° C. in rich media overnight. The strain was then diluted to an OD600 of 0.004 in SC media with 2% glucose, and mixed with various dilutions of test compounds (0.05 to 50 μM) in SC media with 2% glucose. The cells were then incubated at 25° C. or 35° C. for 72 hours. Rescue of the sar1^ts mutant phenotype was scored as an increase in the OD600 (concentration of the yeast cells) cultured in the presence of a test compound as compared to cells cultured cultured in the absence of the test compound.

ypt1^ts cells = test: ypt1^ts mutant growth rescue assay (OD600); assay type: cell-based, yeast; conditions: for rescue of ypt1^ts loss of function / restoring growth of ypt1^ts: 35° C. and 37° C.
Description: The yeast mutant cell line ypt1^ts suppresses, in a temperature dependent fashion, the dominant-lethal phenotype of a mutant YPT1 allele (Schmitt et al. (1988) Cell 53:635-47). The yeast mutant cell line ypt1^ts contains an allele of YPT1 that has two point mutations: one that changes an asparagine at position 121 to a isoleucine (N121I) and another that changes an alanine at position 161 to a valine (A161V). The N121I mutation causes dominant lethality by itself, but lethality is suppressed by the second mutation, resulting in a recessive loss of function phenotype at the restrictive temperatures. ypt1^ts cells grow normally at temperatures up to 25° C., but are growth arrested at 37° C. (Id.).
Compounds that rescue cells from alpha-synuclein toxicity were screened to assess their ability to restore growth of ypt1^ts cells. The effect of the compounds was measured on ypt1^ts cells cultured at room temperature (permissive temperature), 37° C. (non-permissive temperature), and 35° C. (semi-permissive temperature).
To determine if the test compounds could rescue the ypt1^ts mutant phenotype, ypt1^ts cells were grown overnight in synthetic complete (SC) media supplementd with 2% glucose at room temperature. Log phase cells were diluted into SC 2% glucose media to an OD600 of 0.003. 100 μL of this culture was then aliquoted into each well of 96-well flat bottom microtiter plates. 1 μL of the test compounds dissolved in DMSO (at a concentration range from 5 mM-0.005 mM) or of DMSO alone was added to each well (50 uM-0.05 uM final concentration in 1% DMSO). Plates were mixed by vortexing and incubated at 35° C. and 37° C. Compound rescue of the ypt1^ts temperature sensitive defect was assessed by measuring the OD600 (optical density at 600 nm; cell growth) of the cultures. Plates incubated at 35° C. were measured at 24 and 40 hours incubation time while plates grown at 37° C. were measured after 40 hours of incubation.
Assays monitoring the rescue of ypt1^ts mutants were performed using a vehicle, a positive control (calcium), active compounds obtained from the alpha-synuclein screen (Cpd. I.1 and Cpd. II.1), alpha-synuclein-active analogs of Cpd. […] I.1 (Cpd. I.4 and Cpd. I.5).

alpha-synuclein toxicity = test: alpha-synuclein screen (rescue of cells from alpha-synuclein toxicity); assay type: cell-based
[2] = test system: sec23-2^ts mutant yeast strain; test: sec23^ts mutant growth rescue assay (OD600); assay type: cell-based; conditions: 30° C., 24 hours, 0.05 to 50 μM
Experimental: The sec23-2^ts mutant yeast strain carries a temperature sensitive mutant allele of the SEC23 gene, which permits the strain to grow normally at 25° C., but undergo growth arrest at 30° C. or higher. Inactivation of the Sec23 temperature-sensitive mutant protein at the restrictive temperature prevents the formation of transport vesicles at the ER resulting in a block in ER to golgi trafficking (see, e.g., Hicke et al. (1989) EMBO J. 8(6):1677-1684 and Castillo-Flores et al. (2005) J. Biol. Chem. 280(40):34033-34041).
To identify compounds that rescue the sec23^ts mutant phenotype, the mutant strain was first grown at 25° C. in rich media overnight. The strain was then diluted to an OD600 of 0.004 in SC media with 2% glucose, and mixed with various dilutions of test compounds compounds compounds (0.05 to 50 μM) in SC media with 2% glucose. The cells were then incubated at 25° C. or 30° C. for 24 hours. Rescue of the sec23^ts mutant phenotype was scored as an increase in the OD600 of cells cultured in the presence of the a compound as compared to cells cultured in the absence of the test compound.

ΔF508 CFTR = ΔF508 CFTR stabilization in CFBE cells, western blot; assay type: cell-based; conditions: 16 hours, 37° C.; for amount of cellular ΔF508 CFTR protein (band B) / amount of the glycosylated form of ΔF508 CFTR (band C): vs DMSO; for amount of glycosylated and unglycosylated ΔF508 CFTR proteins compared to absence of compound: all concentrations tested (1-10 μM)
Experimental: Selected compounds identified in the ypt1^ts screen were further tested for their ability to stabilize ΔF508 CTFR. CFBE cells, a cell line generated by transformation of cystic fibrosis tracheo-bronchial cells (ΔF508 CTFR homozygous) with SV40 (Bruscia et al. (2002) Gene Ther. 9(11):683-685), were cultured with 10 μM Cpd. I.3, 10 μM Cpd. II.2, or 10 μM VRT-325 for 16 hours at 37° C. (VRT-325 is described in, e.g., Van Goor et al. (2006) Am. J. Physiol. Lung Cell Mol. Physiol. 290:L1117-L1130). A population of cells was also cultured with the dimethyl sulfoxide (DMSO) solvent as a control.
Following incubation, cells were lysed, solubilized in Laemmli buffer, and subjected to SDS-PAGE. CFTR protein was visualized by western blotting using an antibody specific for CFTR. Culturing CFBE cells with Cpd. I.3 or Cpd. II.2 increased the amount of cellular ΔF508 CFTR protein (see band “B,” FIG. 3A). Cpd. I.3 and Cpd. […] The effects of Cpd. I.3 or Cpd.
Next, to test the effect of different concentrations of Cpd. I.3 and Cpd. II.2 on ΔF508 CFTR, a dose response experiment was performed. CFBE cells were grown at 37° C. for 16 hours in the presence of 1, 2.5, 5, or 10 μM Cpd. I.3 or Cpd. II.2. Following incubation, lysates were prepared from the various treated cell populations, the lysates solubilized in Laemmli buffer, and subjected to SDS-PAGE. The relative amounts of glysosylated (band “C”) and unglycosylated (band “B”) ΔF508 CFTR protein were visualized by western blotting as above (FIGS. 4A and 4C). The band intensities were quantitated by scanning and densitometry. […] I.3 (FIG. 4B) and Cpd. II.2 (FIG. 4D), respectively.

ΔF508 CFTR mutant = conditions: cell-based studies, cited from earlier work

## CCC(=O)/N=C(\N)Nc1nc2ccccc2s1 [Cpd. I.1]
[1]
  rescue of the sar1^ts mutant phenotype: rescue
ypt1^ts cells
  rescue of ypt1^ts loss of function / restoring growth of ypt1^ts: rescue
alpha-synuclein toxicity
  activity in the alpha-synuclein screen: active
[2]
  rescue of the sec23^ts mutant phenotype: rescue

## N=C(NC(=O)[C@H]1C[C@@H]1c1ccccc1)Nc1nc2ccccc2o1 [Cpd. I.2]
ypt1^ts cells
  rescue of ypt1^ts loss of function / restoring growth of ypt1^ts: rescued
alpha-synuclein toxicity
  activity in the alpha-synuclein screen: active

## N/C(=N\C(=O)C1CC1)Nc1nc2ccccc2s1 [Cpd. I.3]
[1]
  rescue of the sar1^ts mutant phenotype: rescue
ypt1^ts cells; 2.0 μM, 37° C., 40 hours
  rescue of the ypt1^ts mutant phenotype: rescued
ypt1^ts cells
  rescue of ypt1^ts loss of function / restoring growth of ypt1^ts: rescued
alpha-synuclein toxicity
  activity in the alpha-synuclein screen: active
ΔF508 CFTR; 10 μM
  effects on stabilizing ΔF508 CFTR compared with VRT-325: comparable or better
  amount of cellular ΔF508 CFTR protein (band B): increased
  amount of the glycosylated form of ΔF508 CFTR (band C): increased
ΔF508 CFTR
  concentration at which efficacy reached a maximum (dose response curves from western blot): 1 to 2.5 µM
  amount of glycosylated and unglycosylated ΔF508 CFTR proteins compared to absence of compound: increase
[2]
  rescue of the sec23^ts mutant phenotype: rescue

## N/C(=N\C(=O)C1CCCCC1)Nc1nc2ccccc2o1 [Cpd. I.4]
ypt1^ts cells
  rescue of ypt1^ts loss of function / restoring growth of ypt1^ts: did not
alpha-synuclein toxicity
  activity in the alpha-synuclein screen: inactive

## N=C(NC(=O)[C@@H]1C[C@@H]1c1ccccc1)Nc1nc2ccccc2o1 [Cpd. I.5]
[1]
  rescue of the sar1^ts mutant phenotype: rescue
ypt1^ts cells
  rescue of ypt1^ts loss of function / restoring growth of ypt1^ts: did not
alpha-synuclein toxicity
  activity in the alpha-synuclein screen: inactive
[2]
  rescue of the sec23^ts mutant phenotype: not detected

## N/C(=N\C(=O)CCc1ccco1)Nc1nc2ccccc2o1 [Cpd. I.6]
[1]
  rescue of the sar1^ts mutant phenotype: rescue
[2]
  rescue of the sec23^ts mutant phenotype: not detected

## O=C1CC(c2ccccc2)c2ccc3ccccc3c2N1 (stereo not drawn) [Cpd. II.1]
[1]
  rescue of the sar1^ts mutant phenotype: not detected
ypt1^ts cells
  rescue of ypt1^ts loss of function / restoring growth of ypt1^ts: rescue
alpha-synuclein toxicity
  activity in the alpha-synuclein screen: active
[2]
  rescue of the sec23^ts mutant phenotype: not detected

## O=C1CC(c2cccc(Cl)c2)c2ccc3c(c2N1)CCC3 (stereo not drawn) [Cpd. II.2]
[1]
  rescue of the sar1^ts mutant phenotype: not detected
ΔF508 CFTR; 10 μM
  effects on stabilizing ΔF508 CFTR compared with VRT-325: comparable or better
  amount of cellular ΔF508 CFTR protein (band B): increased
  amount of the glycosylated form of ΔF508 CFTR (band C): increased
ΔF508 CFTR
  concentration at which efficacy reached a maximum (dose response curves from western blot): 2.5 to 5 µM
  amount of glycosylated and unglycosylated ΔF508 CFTR proteins compared to absence of compound: increase
[2]
  rescue of the sec23^ts mutant phenotype: not detected

## O=C1CC(c2cccc(Cl)c2)c2cc3c(cc2N1)CCC3 (stereo not drawn) [Cpd. II.3]
ypt1^ts cells; 5.0 μM, 37° C., 40 hours
  rescue of the ypt1^ts mutant phenotype: rescued

## COc1ccc(OC)c(C2CC(=O)Nc3c2ccc2ccccc32)c1 (stereo not drawn) [II.12]
[1]
  rescue of the sar1^ts mutant phenotype: not detected
[2]
  rescue of the sec23^ts mutant phenotype: not detected

## O=C1CC(c2cccc(Cl)c2)c2ccc(-c3ccccc3)cc2N1 (stereo not drawn) [II.27]
[1]
  rescue of the sar1^ts mutant phenotype: not detected
[2]
  rescue of the sec23^ts mutant phenotype: not detected

## O=C1CC(c2cccc(Cl)c2)c2cc3c4c(cccc4c2N1)CC3 (stereo not drawn) [II.57]
[1]
  rescue of the sar1^ts mutant phenotype: not detected
[2]
  rescue of the sec23^ts mutant phenotype: not detected

## C#Cc1cccc(C2CC(=O)Nc3c2ccc2c3CCC2)c1 (stereo not drawn) [II.59]
[1]
  rescue of the sar1^ts mutant phenotype: not detected
[2]
  rescue of the sec23^ts mutant phenotype: not detected

## CC(C)C[C@@H](C=O)NC(=O)[C@H](CC(C)C)NC(=O)[C@H](CC(C)C)NC(=O)OCc1ccccc1 [MG132, reference compound] (Cbz-Leu-Leu-Leu-aldehyde)
ypt1^ts cells; 37° C., 40 hours, range 0.05-50 μM, intermediate concentrations
  rescue of ypt1^ts loss of function: rescued

## COc1ccc(S(=O)(=O)N2CCN(C(C)c3nc(OC4CCCCC4)c4ccccc4n3)CC2)cc1 (stereo not drawn) [VRT-325, reference compound]
ΔF508 CFTR; 10 μM
  stabilization of ΔF508 CFTR protein in CFBE cells: stabilization

## CC(C)C[C@H](NC(=O)[C@H](Cc1ccccc1)NC(=O)c1cnccn1)B(O)O [bortezomib]
ΔF508 CFTR mutant; ΔF508 CFTR mutant
  cellular chloride efflux: restoring
ΔF508 CFTR mutant
  stabilization of the ΔF508 CFTR mutant, preventing premature degradation: stabilize

## [Ca+2] [calcium, reference compound]
ypt1^ts cells
  rescue of ypt1^ts loss of function / restoring growth of ypt1^ts: rescued

## C[C@@H]1C[C@@H]([C@H](O)CC2CC(=O)NC(=O)C2)C(=O)[C@@H](C)C1 [cycloheximide, reference compound]
[1]
  rescue of the sar1^ts mutant phenotype: rescue
ypt1^ts cells
  rescue of ypt1^ts loss of function / restoring growth of ypt1^ts: effective
[2]
  rescue of the sec23^ts mutant phenotype: not detected

## COc1cccc2c1C(=O)c1c(O)c3c(c(O)c1C2=O)C[C@@](O)(C(=O)CO)C[C@@H]3O[C@H]1C[C@H](N)[C@H](O)[C@H](C)O1 [doxorubicin, reference compound]
[1]
  rescue of the sar1^ts mutant phenotype: not detected
ypt1^ts cells
  rescue of ypt1^ts loss of function / restoring growth of ypt1^ts: effective
[2]
  rescue of the sec23^ts mutant phenotype: not detected

## CO[C@@H]1[C@@H](OC(N)=O)[C@@H](O)[C@H](Oc2ccc3c(O)c(NC(=O)c4ccc(O)c(CC=C(C)C)c4)c(=O)oc3c2C)OC1(C)C [novobiocin, reference compound]
ypt1^ts cells
  rescue of ypt1^ts loss of function / restoring growth of ypt1^ts: effective

## aureobasidin [reference compound]
[1]
  rescue of the sar1^ts mutant phenotype: not detected
ypt1^ts cells
  rescue of ypt1^ts loss of function / restoring growth of ypt1^ts: effective
[2]
  rescue of the sec23^ts mutant phenotype: not detected

## tunicamycin [reference compound]
ypt1^ts cells
  rescue of ypt1^ts loss of function / restoring growth of ypt1^ts: effective
